Laboratory results reported in US20110245249A1, “Heterocyclically Substituted Anilinopyrimidines” (Bayer CropScience AG, priority 2008, published 2011).

Test: logP by HPLC on reversed-phase columns (EEC Directive 79/831 Annex V.A8)
Assay type: physicochemical
Details: for log p [b]: pH 2.7; for log p [c]: pH 7.8; for log p [a]: pH 2.3
Experimental: The logP values were measured in accordance with EEC Directive 79/831 Annex V.A8 by HPLC (High Performance Liquid Chromatography) on reversed-phase columns (C 18) using the methods below:
[a] The determination was carried out in the acidic range at pH 2.3 using the mobile phases 0.1% aqueous phosphoric acid and acetronitrile linear gradient from 10% acetonitrile to 95% acetronitrile. [b] The LC-MS determination in the acid range was carried out at pH 2.7 using the mobile phases 0.1% aqueous formic acid and acetonitrile (contains 0.1% formic acid) linear gradient from 10% acetonitrile to 95% acetonitrile. [c] The LC-MS determination in the neutral range was carried out at pH 7.8 using the mobile phases 0.001 molar aqueous ammonium bicarbonate solution and acetonitrile linear gradient from 10% acetonitrile to 95% acetonitrile.

Row | Compound | chromatographic logP (pH 2.7, logP (pH 2.7)) | log p [b] | log p [c] | other results
1 | 2-Chloro-{[5-chloro-4-(cyclopropylamino)pyrimidin-2-yl]amino}benzenecarbaldehyde |  |  |  | logP (pH 2.7) (pH 2.7, LC-MS, 0.1% aqueous formic acid/acetonitrile): 2.68
2 | CC(=O)c1cccc(Nc2ncc(C(F)(F)F)c(NC3CCC3)n2)c1 [1-(3-{[4-(Cyclobutylamino)-5-(trifluoromethyl)pyrimidin-2-yl]amino}phenyl)ethanone] | 3.24 |  |  | 
3 | CC(=O)c1cccc(Nc2ncc(C(F)(F)F)c(NC3CC3)n2)c1 [1-(3-{[4-(Cyclopropylamino)-5-(trifluoromethyl)pyrimidin-2-yl]amino}phenyl)ethanone] | 2.72 |  |  | 
4 | CC(=O)c1cccc(Nc2ncc(Cl)c(NC3CC3)n2)c1 [1-(3-{[5-Chloro-4-(cyclopropylamino)pyrimidin-2-yl]amino}phenyl)ethanone] | 1.75 |  |  | 
5 | CCC(=O)c1cccc(Nc2ncc(Cl)c(NC3CC3)n2)c1 [1-(3-{[5-Chloro-4-(cyclopropylamino)pyrimidin-2-yl]amino}phenyl)propan-1-one] | 2.25 |  |  | 
6 | CC(=O)c1ccc(Nc2ncc(Cl)c(NC3CC3)n2)cc1 [1-(4-{[5-Chloro-4-(cyclopropylamino)pyrimidin-2-yl]amino}phenyl)ethanone] | 1.93 |  |  | 
7 | CC(=O)c1cccc(Nc2ncc(C(F)(F)F)c(NCC3CC3)n2)c1 [1-[3-({4-[(Cyclopropylmethyl)amino]-5-(trifluoromethyl)pyrimidin-2-yl}amino)phenyl]-ethanone] | 2.77 |  |  | 
8 | CC1CC1Nc1nc(Nc2cccc(C=O)c2)ncc1Cl (stereo not drawn) [3-((5-Chloro-4-[(2-methylcyclopropyl)amino]pyrimidin-2-yl)amino)benzaldehyde] |  |  |  | chromatographic logP (pH 2.3, logP (pH 2.3)): 2.11
9 | COCC(C)Nc1nc(Nc2cccc(C=O)c2)ncc1Cl (stereo not drawn) [3-({5-Chloro-4-[(1-methoxypropan-2-yl)amino]pyrimidin-2-yl}amino)benzenecarbaldehyde] | 1.8 |  |  | 
10 | O=Cc1cccc(Nc2ncc(Cl)c(NCC(F)(F)F)n2)c1 [3-({5-Chloro-4-[(2,2,2-trifluoroethyl)amino]pyrimidin-2-yl}amino)benzenecarbaldehyde] | 2.46 |  |  | 
11 | O=Cc1cccc(Nc2ncc(Cl)c(NCC(F)F)n2)c1 [3-({5-Chloro-4-[(2,2-difluoroethyl)amino]pyrimidin-2-yl}amino)benzenecarbaldehyde] | 2.01 |  |  | 
12 | O=Cc1cccc(Nc2ncc(Cl)c(NCC3CC3)n2)c1 [3-({5-Chloro-4-[(cyclopropylmethyl)amino]pyrimidin-2-yl}amino)benzenecarbaldehyde] | 1.94 |  |  | 
13 | CN(c1nc(Nc2cccc(C=O)c2)ncc1Cl)C1CC1 [3-({5-Chloro-4-[cyclopropyl(methyl)amino]pyrimidin-2-yl}amino)benzenecarbaldehyde] | 2.84 |  |  | 
14 | O=Cc1cccc(Nc2ncc(C(F)(F)F)c(NC3CCC3)n2)c1 [3-{[4-(Cyclobutylamino)-5-(trifluoromethyl)pyrimidin-2-yl]amino}benzenecarbaldehyde] | 3.26 |  |  | 
15 | O=Cc1cccc(Nc2ncc(C(F)(F)F)c(NC3CC3)n2)c1 [3-{[4-(Cyclopropylamino)-5-(trifluoromethyl)pyrimidin-2-yl]amino}benzenecarbaldehyde] | 2.73 |  |  | 
16 | O=Cc1cccc(Nc2ncc(F)c(NC3CC3)n2)c1 [3-{[4-(Cyclopropylamino)-5-fluoropyrimidin-2-yl]amino}benzenecarbaldehyde] | 1.26 |  |  | 
17 | O=Cc1cccc(Nc2ncc(I)c(NC3CC3)n2)c1 [3-{[4-(Cyclopropylamino)-5-iodopyrimidin-2-yl]amino}benzenecarbaldehyde] | 1.96 |  |  | 
18 | Cc1cnc(Nc2cccc(C=O)c2)nc1NC1CC1 [3-{[4-(Cyclopropylamino)-5-methylpyrimidin-2-yl]amino}benzenecarbaldehyde] | 1.13 |  |  | 
19 | O=Cc1cccc(Nc2ncc(Br)c(NC3CCC3)n2)c1 [3-{[5-Bromo-4-(cyclobutylamino)pyrimidin-2-yl]amino}benzenecarbaldehyde] | 2.35 |  |  | 
20 | O=Cc1cccc(Nc2ncc(Br)c(NC3CC3)n2)c1 [3-{[5-Bromo-4-(cyclopropylamino)pyrimidin-2-yl]amino}benzenecarbaldehyde] | 1.93 |  |  | 
21 | O=Cc1cccc(Nc2ncc(Cl)c(NC3CCC3)n2)c1 [3-{[5-Chloro-4-(cyclobutylamino)pyrimidin-2-yl]amino}benzenecarbaldehyde] | 2.16 |  |  | 

Row | Compound | chromatographic logP (pH 2.7, logP (pH 2.7)) | log p [b] | log p [c] | other results
22 | O=Cc1cccc(Nc2ncc(Cl)c(NC3CC3)n2)c1 [3-{[5-Chloro-4-(cyclopropylamino)pyrimidin-2-yl]amino}benzenecarbaldehyde] | 1.82 |  |  | 
23 | CC(C)Nc1nc(Nc2cccc(C=O)c2)ncc1Cl [3-{[5-Chloro-4-(isopropylamino)pyrimidin-2-yl]amino}benzaldehyde] | 1.86 |  |  | 
24 | C#CCNc1nc(Nc2cccc(C=O)c2)ncc1Cl [3-{[5-Chloro-4-(prop-2-yn-1-ylamino)pyrimidin-2-yl]amino}benzenecarbaldehyde] | 1.74 |  |  | 
25 | CC1(C)COC(c2cccc(Nc3ncc(Cl)c(NC4CC4)n3)c2)OC1 [Example 2] |  | 2.45[b] |  | 
26 | CC1OC(c2cccc(Nc3ncc(Cl)c(NC4CC4)n3)c2)OC1C (stereo not drawn) [Example 3] |  | 2.2[b] |  | 
27 | SCCOC(OCCS)c1cccc(Nc2ncc(Cl)c(NC3CC3)n2)c1 [Example 4] |  | 1.36 | 2.03 | 
28 | CCC1COC(c2cccc(Nc3ncc(Cl)c(NC4CC4)n3)c2)O1 (stereo not drawn) [Example 7] |  | 2.29 | 3.48 | 
29 | CC1COC(c2cccc(Nc3ncc(Cl)c(NC4CC4)n3)c2)O1 (stereo not drawn) [Example 8] |  | 1.9[b] |  | 
30 | CC1CC(C)OC(c2cccc(Nc3ncc(Cl)c(NC4CC4)n3)c2)O1 (stereo not drawn) [Example 9] |  | 2.26 | 3.51 | 
31 | CC1(c2cccc(Nc3ncc(C(F)(F)F)c(NCC4CC4)n3)c2)OCCO1 [Example 10] |  | 3.15[b] | 3.79 | log p [a]: 3.16
32 | CC1(c2cccc(Nc3ncc(C(F)(F)F)c(NC4CC4)n3)c2)OCCO1 [Example 11] |  | 3.03 | 3.46 | 
33 | Brc1cnc(Nc2cccc(C3OCCO3)c2)nc1NC1CC1 [Example 13] |  | 1.75 | 2.82 | 
34 | Brc1cnc(Nc2cccc(C3OCCCO3)c2)nc1NC1CC1 [Example 15] |  |  | 2.97 | 
35 | CC1OC(c2cccc(Nc3ncc(Br)c(NC4CCC4)n3)c2)OC1C (stereo not drawn) [Example 17] |  | 2.67 | 4.12 | 
36 | Clc1cnc(Nc2cccc(C3OCCO3)c2)nc1NCC1CC1 [Example 18] |  | 1.73 | 3.06 | 
37 | CC1(C)COC(c2cccc(Nc3ncc(Cl)c(NC4CCC4)n3)c2)OC1 [Example 19] |  | 2.57[b] | 4.13 | log p [a]: 2.29
38 | Brc1cnc(Nc2cccc(C3OCCO3)c2)nc1NC1CCC1 [Example 20] |  | 2.05 | 3.39 | 
39 | CC1(C)COC(c2cccc(Nc3ncc(Br)c(NC4CCC4)n3)c2)OC1 [Example 21] |  | 3 | 4.51 | 
40 | CC1(C)COC(c2cccc(Nc3ncc(C(F)(F)F)c(NC4CC4)n3)c2)OC1 [Example 25] |  | 3.7 | 4.07 | 
41 | CC1(C)COC(c2cccc(Nc3ncc(C(F)(F)F)c(NC4CCC4)n3)c2)OC1 [Example 26] |  | 4.22 | 4.62 | 
42 | Clc1cnc(Nc2cccc(C3OCC(c4ccccc4)O3)c2)nc1NC1CC1 (stereo not drawn) [Example 29] |  |  | 3.93[c] | 
